Usually IC50 stands for the concentration that inhibits the measured activity by half. In general, Cmax refers to the highest concentration seen after dosing.

Read-outs that look alike come from different tables or passages of the source.

For one series, the target named is human DAT (Homo sapiens, UniProt Q01959). The series is described as follows: DAT transporter inhibitory activity test (neurotransmitter transporter uptake assay kit). The series is classed as cell-based. Conditions: DAT stably transfected HEK cells; read-out: DAT (IC50). Here is the method:
Transporter inhibition of human DAT and NET expressed in HEK-293 cells was assessed using a neurotransmitter transporter uptake assay kit. The assay was performed as described in the kit instructions, using centanafadine as a positive control. The specific procedures were as follows:
DAT stably transfected culture: The DAT-HEK cell line was cultured in DMEM medium containing 10% fetal bovine serum and 0.2 mg/mL hygromycin B at 37° C. with 5% carbon dioxide.
DAT stably transfected cell passage: the old medium was removed, and the cells were washed once with PBS; 1 mL of TrypLE™ Express solution was then added, and the cells were incubated at 37° C. for about 2 min. When the cells were detached from the bottom of the dish, about 5 mL of complete medium pre-heated at 37° C. was added. The cell suspension was gently pipetted to separate the aggregated cells. The cell suspension was transferred to a sterile centrifuge tube and centrifuged at 1000 rpm for 5 min. In order to maintain the physiological activity of the cells, the experimental cell confluence was controlled at about 80%.
• a) After overnight transfection of NET cells, the cells were digested with trypsin, resuspended with DMEM+10% Dialyzed FBS medium, seeded into a 384-well plate at 20000 cells/well, and incubated overnight. […] After centrifuging, the plate was incubated at 37° C. for 30 min. • e) A detection reagent was prepared using 1×HBSS, and 16 μL of the detection reagent was added to each well. […] Curve fitting and IC50 calculation were performed using GraphPad Prism software nonlinear regression method.

In another series the target is human SERT (Homo sapiens, UniProt P31645). The experiment in a line: Inhibitory activity assay against 5-HT transporter (neurotransmitter transporter uptake assay kit). The following applies: HEK-293 cells overexpressing human SERT; read-out: 5-HTT (IC50). The series is classed as cell-based. Here is the method:
In HEK-293 cells overexpressing human SERT, the transporter inhibitory effect of the test compound on human SERT was assayed using a Neurotransmitter transporter uptake assay kit (Molecular devices).

A short description of series [1]: In vivo metabolism (pharmacokinetic) experiment in mice. The arrangement: species or system male ICR mice. Conditions: mouse, male ICR mice; for AUC(0-inf) / Cmax / half-life: oral 10 mg/kg, plasma; for AUC(0-inf): read-out: AUC0-inf(po); for Cmax: read-out: Cmax (po); for half-life: read-out: T1/2 (po) (converted). Here is the method:
Animal: male ICR mice. The animals were randomly assigned to treatment groups and fasted for 12 h prior to dosing.
Drug: the compound of the present disclosure was dissolved in a vehicle (5% DMSO+5% Solutol HS15+90% saline). For intravenous (iv) administration, the dose was 2.5 mg/kg with a dosing volume of 5 mL/kg; for oral (po) administration, the dose was 10 mg/kg with a dosing volume of 10 mL/kg body weight. Sample collection and bioanalysis: blood was collected from the orbit of the mice and added into EP tubes containing heparin sodium at 0.083, 0.25, 0.5, 1, 2, 4, 6, and 8 h (n=3 for each time point). Immediately after blood collection, the mice were euthanized by cervical dislocation, and mouse brains were collected at the corresponding time points. All samples were promptly collected, snap-frozen, and stored at −70° C. for later use. Plasma samples were obtained by centrifugation of whole blood. 10 μL of plasma was mixed with 190 μL of internal standard solution (20 ng/ml in acetonitrile containing 0.1% formic acid). After mixing, the samples were centrifuged at 13000 rpm for 10 min, and 120 μL of the supernatant was separately collected. Depending on the sensitivity of the compound, 0.5-10 μL of the supernatant was taken for drug analysis using the appropriate liquid chromatography-tandem mass spectrometry (LC-MS/MS). Each analyte was calibrated and identified using standards. According to brain tissue: the extract (50% acetonitrile/water) at a ratio of 1 g:8 mL was homogenized for 2 min using five 3 mm magnetic beads in an OMNI Bead Ruptor 24 Elite homogenizer at 3.2 m/s and centrifuged at 4° C. and 3000 g for 3 min. 50 μL of the supernatant was mixed with 200 μL of internal standard solution (20 ng/mL in 80% acetonitrile/water). After mixing, the samples were centrifuged at 13,000 rpm for 10 min, and 120 μL of the supernatant was separately collected. Depending on the sensitivity of the compound, 0.5-10 μL of the supernatant was taken for drug analysis using the appropriate LC-MS/MS method. Each analyte was calibrated and identified using standards.
Data analysis: drug concentrations below the lower limit of quantification (LLOQ) were considered zero. Pharmacokinetic parameters were analyzed using PK Solver with a non-compartmental, bolus injection or extravascular input analysis models. Data points below the LLOQ were excluded to improve the efficacy of t1/2 calculation.

Chain of human SERT (P31645 whole entry): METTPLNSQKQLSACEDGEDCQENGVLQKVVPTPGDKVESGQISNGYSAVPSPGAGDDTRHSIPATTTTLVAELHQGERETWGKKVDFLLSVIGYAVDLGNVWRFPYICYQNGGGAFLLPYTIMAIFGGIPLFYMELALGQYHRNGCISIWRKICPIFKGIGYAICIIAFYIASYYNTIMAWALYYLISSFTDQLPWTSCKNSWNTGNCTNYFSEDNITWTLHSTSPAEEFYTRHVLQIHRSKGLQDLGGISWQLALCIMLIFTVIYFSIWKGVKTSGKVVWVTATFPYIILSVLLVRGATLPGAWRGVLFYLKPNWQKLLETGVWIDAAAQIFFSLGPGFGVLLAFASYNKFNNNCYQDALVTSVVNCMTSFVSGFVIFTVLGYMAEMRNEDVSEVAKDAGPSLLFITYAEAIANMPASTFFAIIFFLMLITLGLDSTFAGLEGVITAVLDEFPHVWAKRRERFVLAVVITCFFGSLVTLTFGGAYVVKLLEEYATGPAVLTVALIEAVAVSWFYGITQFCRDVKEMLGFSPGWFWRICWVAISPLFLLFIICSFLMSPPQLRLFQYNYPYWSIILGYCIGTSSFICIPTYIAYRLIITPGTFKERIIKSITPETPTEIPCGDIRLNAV
Chain of human DAT (Q01959 whole entry): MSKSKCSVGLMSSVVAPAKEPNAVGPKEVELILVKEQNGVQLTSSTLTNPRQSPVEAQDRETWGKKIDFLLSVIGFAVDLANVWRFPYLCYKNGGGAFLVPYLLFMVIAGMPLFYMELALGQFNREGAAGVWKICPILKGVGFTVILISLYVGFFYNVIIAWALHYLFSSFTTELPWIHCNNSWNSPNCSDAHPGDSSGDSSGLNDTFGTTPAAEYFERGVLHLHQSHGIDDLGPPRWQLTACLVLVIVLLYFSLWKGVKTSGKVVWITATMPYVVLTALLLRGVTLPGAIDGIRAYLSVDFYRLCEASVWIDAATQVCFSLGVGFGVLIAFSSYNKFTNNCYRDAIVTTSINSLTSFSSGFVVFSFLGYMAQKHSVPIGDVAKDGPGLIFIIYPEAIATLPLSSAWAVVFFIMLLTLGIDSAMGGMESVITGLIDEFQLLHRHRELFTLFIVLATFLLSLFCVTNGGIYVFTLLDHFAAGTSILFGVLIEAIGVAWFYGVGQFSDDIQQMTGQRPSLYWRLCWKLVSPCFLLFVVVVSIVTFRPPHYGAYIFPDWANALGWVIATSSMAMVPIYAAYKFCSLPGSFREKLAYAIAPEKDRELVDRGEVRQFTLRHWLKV

`c1ccc(C2(N3CCOCC3)CCc3sccc3C2)cc1` (racemic) [rac-A47, 4-(5-phenyl-4,5,6,7-tetrahydrobenzothiophen-5-yl)morpholine]: the IC50 on human DAT worked out at 1.3 µM.
On to `CN(C)C1(c2cccc(O)c2)CCc2nc(N)sc2C1` (racemic) [rac-A305, 3-(2-amino-6-dimethylamino-4,5,6,7-tetrahydrobenzo[d]thiazol-6-yl)phenol], for which the IC50 at human DAT is 0.24 µM.
On to `NC1(c2cccc(O)c2)CCc2nc(NCC(F)(F)F)sc2C1` (racemic) [rac-A396, 3-(6-amino-2-((2,2,2-trifluoroethyl)amino)-4,5,6,7-tetrahydrobenzo[d]thiazol-6-yl)phenol], for which, at human DAT, the IC50 amounted to 18 µM.
For the compound `CNCC1(c2ccccc2)CCc2nc(N)sc2C1` (racemic) [rac-A252, 6-((methylamino)methyl)-6-phenyl-4,5,6,7-tetrahydrobenzo[d]thiazol-2-amine], the IC50 on human DAT was determined as 9.5 µM.
Regarding `CNC1(c2cccnc2)CCc2nc(N)sc2C1` (racemic) [rac-A99, N^6-methyl-6-(pyridin-3-yl)-4,5,6,7-tetrahydrobenzothiazole-2,6-diamine], on human DAT, the IC50 was 11 µM.
Turning to `Nc1nc2c(s1)CC(N)(c1ccc3c(c1)OCO3)CC2` (racemic) [rac-A303, 6-(benzo[d][1,3]dioxol-5-yl)-4,5,6,7-tetrahydrobenzo[d]thiazole-2,6-diamine], the IC50 on human DAT was determined as 8.2 µM.
On the same count and under the same terms, the figure for `COc1cccc(C2(N(C)C)CCc3nc(N)sc3C2)c1` (racemic) [rac-A283, 6-(3-methoxyphenyl)-N^6,N^6-dimethyl-4,5,6,7-tetrahydrobenzo[d]thiazole-2,6-diamine] is 0.45 µM.
`COc1cc(C2(N)CCc3nc(N)sc3C2)ccn1` (racemic) [rac-A309, 6-(2-methoxypyridin-4-yl)-4,5,6,7-tetrahydrobenzo[d]thiazole-2,6-diamine]: the IC50 on human DAT came to 14 µM.
The same measure, in the same setting: the figure for `Nc1nc2c(s1)CC(NCC1CC1)(c1ccccc1F)CC2` (racemic) [rac-A374, N^6-(cyclopropylmethyl)-6-(2-fluorophenyl)-4,5,6,7-tetrahydrobenzo[d]thiazole-2,6-diamine] is 3.8 µM.
Turning to `NC1(c2ccc3ccccc3c2)CCc2sccc2C1` (racemic) [rac-A247, 5-(naphthalen-2-yl)-4,5,6,7-tetrahydrobenzo[b]thiophen-5-amine], the IC50 came out at 4.5 µM at human SERT and 1.5 µM at human DAT.
In the case of `Nc1nc2c(s1)C[C@](N)(c1ccccc1)CC2` [S-A1], the IC50 on human DAT was found to be 6.5 µM.
Take `CCNC1(c2cccc(OC)c2)CCc2nc(N)sc2C1` (racemic) [rac-A226, N^6-ethyl-6-(3-methoxyphenyl)-4,5,6,7-tetrahydrobenzo[d]thiazole-2,6-diamine]: the IC50 at human SERT and on human DAT was 2 µM each time.
For `CC(C)Oc1cccc(C2(N)CCc3nc(N)sc3C2)c1` (racemic) [rac-A321, 6-(3-isopropoxyphenyl)-4,5,6,7-tetrahydrobenzo[d]thiazole-2,6-diamine], at human DAT, the IC50 was 5.9 µM.
Turning to `Clc1cccc(C2(N3CCCCC3)CCc3nnsc3C2)c1` (racemic) [rac-A58, 6-(3-chlorophenyl)-6-(piperidin-1-yl)-4,5,6,7-tetrahydrobenzothiadiazole], the IC50 at human DAT came out at 2.7 µM.
In the case of `N[C@@]1(c2ccccc2)CCc2ncsc2C1` [S-A14], the IC50 at human DAT came to 11 µM.
Regarding `Nc1nc2c(s1)C[C@@](c1ccccc1)(N1CCCC1)CC2` [S-A50], at human DAT, the IC50 was 2.4 µM.
In the case of `CNC1(c2ccccc2)CCc2[nH]ncc2C1` (racemic) [rac-A69, N-methyl-5-phenyl-4,5,6,7-tetrahydro-1H-indazol-5-amine], in series [1] (oral 10 mg/kg vs iv 2.5 mg/kg, read-out: F (%)), the bioavailability amounted to 132%. For the same compound, in series [1], the AUC(0-inf) was found to be 602 ng·h/mL, the Cmax is 456 ng/mL and the half-life was 0.69 h.
Turning to `CCOc1cccc(C2(NC)CCc3nc(N)sc3C2)c1` (racemic) [rac-A342, 6-(3-ethoxyphenyl)-N^6-methyl-4,5,6,7-tetrahydrobenzo[d]thiazole-2,6-diamine], the IC50 at human DAT turned out to be 0.35 µM.
On to `CN(C)C1(c2ccccc2F)CCc2nc(N)sc2C1` (racemic) [rac-A234, 6-(2-fluorophenyl)-N^6,N^6-dimethyl-4,5,6,7-tetrahydrobenzo[d]thiazole-2,6-diamine], for which the IC50 was found to be 0.3 µM on human SERT and 6.3 µM on human DAT.
In the case of `c1ccc(C2(N3CCCC3)CCc3nnsc3C2)cc1` (racemic) [rac-A54, 6-phenyl-6-(pyrrolidin-1-yl)-4,5,6,7-tetrahydrobenzothiadiazole], at human DAT, the concentration for half-maximal inhibition (IC50) was 2.8 µM.
In the case of `CCOc1cccc([C@]2(N)CCc3nc(N)sc3C2)c1` [S-A228, (S)-6-(3-ethoxyphenyl)-4,5,6,7-tetrahydrobenzo[d]thiazole-2,6-diamine], the half-maximal inhibitory concentration (IC50) at human DAT was determined as 1.8 µM.
On the same count and under the same terms, the figure for `CNC1(c2ccc(Cl)cc2)CCc2nc(N)sc2C1` (racemic) [rac-A332, 6-(4-chlorophenyl)-N^6-methyl-4,5,6,7-tetrahydrobenzo[d]thiazole-2,6-diamine] is 3.2 µM.
Regarding `O=C(O)c1cc2c(s1)CCC(c1ccccc1)(N1CCOCC1)C2` (racemic) [rac-A46, 5-morpholino-5-phenyl-4,5,6,7-tetrahydrobenzothiophen-2-carboxylic acid], in series [1] (male, ICR, po, 10 mg/kg), the AUC(0-inf) came to 3900 ng·h/mL, the peak concentration (Cmax) is 2710 ng/mL and the half-life was 2.6 h.
